Patent US20240285670A1, “THERAPEUTIC TREATMENT OF TUMORS BY BLOCKING THE HEME SYNTHESIS-EXPORT AXIS” (Università degli Studi di Torino, priority 2021, published 2024)

System: SKCO1 cells
Assay: TCA cycle flux in SKCO1 cells
Assay type: cell-based, human
Details: FLVCR1a-silenced vs scramble shRNA SKCO1 cells
Description: TCA cycle flux is reported in the centre of the figure and expressed as pmol CO2/h/mg protein. Data represent mean±SEM, n=3. For statistical analyses, an unpaired Student's t-test was used. **=p<0.01. Moreover, TCA cycle enzymes activities are reported in boxes and expressed as mU/mg mitochondrial proteins. Data represent mean±SEM, n=3. For statistical analyses, an unpaired Student's t-test was used; *=p<0.05, ***=p<0.001. […] Results are expressed as pmol CO2/h/mg protein. Data represent mean±SEM, n=3. For statistical analyses, an unpaired Student's t-test was used; *=p<0.05, **=p<0.01.
The glucose flux through TCA cycle was measured by radiolabeling cells with 2 μCi/ml [6-^14C]-glucose (55 mCi/mmol; PerkinElmer, Waltham, MA, USA, catalog n° NEC045X). Cell suspensions were incubated for 1 hour in a closed experimental system to trap the ^14CO2 developed from [^14C]-glucose. The reaction was stopped by injecting 0.5 ml of 0.8N HClO4. The amount of glucose transformed into CO2 through the TCA cycle was calculated as described (Riganti et al., 2004) and expressed as pmoles CO2/h/mg cell proteins.

Q: How did the TCA cycle flux turn out when “FLVCR1a shRNA: shRNA specifically down-regulating FLVCR1a without targeting FLVCR1b; pLKO.1 lentiviral clone TRCN0000059599, antisense SEQ ID No.: 2 (antisense TTGCTAATGATGCTGTACTGG; sense CCAGTACAGCATCATTAGCAA)” was run?
A: Its TCA cycle flux is “Increased TCA cycle flux”.
